Experimental data: patent US20240415828A1, “TLR7 AGONIST AND COMBINATIONS FOR CANCER TREATMENT” (BIONTECH SE, priority 2021, published 2024)

Experiments:
[1] = tested on: CT26 colon carcinoma cells; assay: CT26 tumor model, BNT411 alone (Example 3); type: in vivo, mouse
Experimental: FIG. 4. Anti-tumoral efficacy of BNT411 alone in a tumor mouse model. Mice (n=12 or 13 per group) subcutaneously inoculated with 5×10^5 CT26 colon carcinoma cells were used as tumor mouse model. BNT411 was administered i.v. at a dose level of 3 mg/kg eight times with 4 to 5 days interval (on days 14, 19, 23, 28, 33, 37, 42, and 47). A control group (n=13) received vehicle alone. Adaptive immunity was evaluated by analyzing gp70-antigen-specific T cell populations in blood and splenocytes 3 and 5 weeks after the first study drug administration. (A) Dosing schedule. (B) Graph showing the tumor volumes vs. days after inoculation. Group mean tumor volumes for all live animals are shown. Additionally, tumor volumes of animals that were euthanized due to tumor load were carried forward for as long as they were larger than the group median tumor volume (SEM: standard error of the mean; LOCF: last observation carried forward values).
Serum levels of IFNα were measured by sandwich ELISA (Pbl Assay Systems) according to manufacturer's instructions.
BALB/c mice were inoculated s.c. with 2.5×10^5−5×10^5 CT26-WT into the flank, respectively. Once tumors reached palpable sizes, mice were randomly divided into treatment and control groups. Tumor volume was measured unblinded with a caliper and calculated using the formula (a×b^2)/2 (a being the largest and b being the smallest diameter of the tumor). Tumor growth was documented as mean tumor size with standard error disregarding single distant outliers. Treatment was initiated after 7-10 d with tumors having reached an average volume of about 10 mm^3. 3 mg/kg (75 μg/mouse; BALB/c mice) BNT411 was administered by i.v. injection to the retro-orbital venous plexus. Control groups received an equal volume of 100 μl saline vehicle (0.1% 1 M HCl, 0.1% 1 M NaOH, 99.8% isotonic NaCl solution pH 5.63).
Eight doses of BNT411 were administered i.v. at a dose level of 3 mg/kg eight times with 4 to 5 days interval (on days 14, 19, 23, 28, 33, 37, 42, and 47); cf., FIG. 4A. […] A control group (n=13) received vehicle alone. Adaptive immunity was evaluated by analyzing gp70-antigen-specific T cell populations in blood and splenocytes 3 and 5 weeks after the first study drug administration. Gp70 is the immune dominant CD8^+ T-cell recognized antigen of the CT26 tumor model.

[2] = tested on: CT26 colon carcinoma cells; assay: CT26 tumor model, BNT411 alone and with anti-PD-L1 antibody (Example 5); type: in vivo; settings: no adverse clinical effects, higher toxicities, or body weight loss
Experimental: FIG. 6. Anti-tumoral efficacy of BNT411 alone and in combination with an anti-PD-L1 antibody in a tumor mouse model. Mice (n=10 per group) subcutaneously inoculated with 5×10^5 CT26 colon carcinoma cells were used as tumor mouse model. The anti-PD-L1 antibody anti-PD-L1-mIgG1e3 was administered intraperitoneally (i.p.) at a dose level of 200 μg per animal. BNT411 was administered i.v. at a dose level of 3 mg/kg. All treatments were delivered once every five days for a total of six doses. Body weight changes and tumor growth were assessed on study day 21 when there were at least nine animals alive in each group. (A) Dosing schedule. (B) Graph showing the tumor volumes vs. study day. Mean tumor volume±SEM (mm^3) is depicted for each treatment. Last observations were carried forward until day 35 when only the animal who cleared the tumor was left. […]
BALB/c mice were inoculated s.c. with 2.5×10^5−5×10^5 CT26-WT into the flank, respectively. […] Tumor volume was measured unblinded with a caliper and calculated using the formula (a×b^2)/2 (a being the largest and b being the smallest diameter of the tumor). […]
Four groups of 10 animals were inoculated with 1×10^6 CT26 cells per animal into the dorsal right flank (day 0). […] Body weight changes and tumor growth were assessed on study day 21 when there were at least nine animals alive in each group. […]

SMILES: COCCc1nc2c(N)nc3ccccc3c2n1CCCCN(C(C)=O)C1CCOCC1 [BNT411]
- tumor growth inhibition, test/control value ([1]; 3 mg/kg i.v. eight times, day 35): 43.3%
- animals still alive ([1]; 3 mg/kg i.v., day 49, last day of the experiment): 8 of 13
- increase in blood IFNα levels compared with the control group ([1]; 1 h after the first dosing, 3 mg/kg i.v.): 50 fold
- frequency of gp70+ T-cells in blood ([1]; day 35): 8.72%
- frequency of gp70+ T-cells in splenocytes ([1]; day 50): 0.76%
- blood parameters (alanine transaminase, aspartate transaminase, creatine kinase, glutamate dehydrogenase, lactate dehydrogenase, bilirubin) vs control group ([1]; serum, day 19): comparable
- tolerability throughout treatment [2]: well tolerated
